Assay results published in patent publication US20240209011A1, “HETEROAROMATIC PHOSPHONIUM SALTS FOR TREATING CANCER” (FLORATEK PHARMA S.A., priority 2021, published 2024).
Each block holds one compound with its values, some of them ahead of it.

Key:
Format in all cases: cell-based
lung carcinoma cell = test: Activity against lung carcinoma cells; settings: lung carcinoma cell growth; text summary of Tables 14A-14C
Description: Antitumor activity of the compounds and doxorubicin as a positive control was assessed by using the CellTiter-Blue Cell Viability Assay (Promega, #G8082) or CellTiter-Glow® Luminescent Cell Viability assay (Promega #G7572) according to the manufacturer's instructions. The compounds were tested at 5 or 6 concentrations in half-log increments (highest concentration 30 μM or 100 μM) in duplicate or triplicate well conditions.
Tumor cells were grown at 37° C. in a humidified atmosphere with 5% CO2 in RPMI 1640 or DMEM medium, supplemented with 10% (v/v) fetal calf serum and 50 μg/ml gentamicin for up to 20 passages, and were passaged once or twice weekly. Cells were harvested using TrypLE or PBS buffer containing 1 mM EDTA, and the percentage of viable cells is determined using a CASY Model TI cell counter (OMNI Life Science). Cells were harvested from exponential phase cultures, counted and plated in 96 well flat-bottom microtiter plates at a cell density depending on the cell line's growth rate (4,000-20,000 cells/well depending on the cell line's growth rate, up to 60,000 for hematological cancer cell lines) in RPMI 1640 or DMEM medium supplemented with 10% (v/v) fetal calf serum and 50 μg/ml gentamicin (140 μl/well). Cultures were incubated at 37° C. and 5% CO2 in a humidified atmosphere. After 24 h, 10 μl of test compounds or control medium were added, and left on the cells for another 72 h. Compounds were serially diluted in DMSO, transferred in cell culture medium, and added to the assay plates. The DMSO concentration was kept constant at <0.3% v/v across the assay plate. Viability of cells was quantified by the CellTiter-Blue® cell viability assay (Promega G8081) or CellTiter-Glow® Luminescent Cell Viability assay (Promega #G7572). Fluorescence (FU) was measured by using the EnSpire® multimode plate reader (Perkin Elmer) (excitation X=570 nm, emission λ=600 nm). Luminescence was measured with a microplate luminometer (Promega or PerkinElmer).
Sigmoidal concentration-response curves were fitted to the data points (test-versus-control, T/C values) obtained for each tumor model using 4 parameter non-linear curve fit (Charles River DRS Datawarehouse Software) or with GraphPad prism 5.02 software. IC50 values are reported as absolute IC50 values, being the concentration of test compound at the intersection of the concentration-response curves with T/C=50% Cell lines tested are presented in Table 1.

BR-05-0014E = test: PDX-derived cell culture cytotoxicity (CellTiter-Glo); settings: 120 h; breast PDX BR-05-0014E; absolute IC50; 5 days
Description: (§1) PDX-derived cell cultures were obtained from tumors explanted from mice and isolated by mechanical and enzymatic dissociation. […] Cells were harvested and seeded in 96-wells plates at a density of 1.25 to 5×10^3 cells/well for cytotoxicity assays. Cells were incubated 48 h at 37° C. prior to addition of test molecules and vehicle (DMSO, 0.1%) at desired final concentrations. Cell viability was assessed before drugs' addition (To) and 5 days after test molecules addition by measuring ATP cell content using CellTiter-Glo® Luminescent Cell Viability Assay (Promega) according to the manufacturer's instructions. Luciferase activity was measured on a luminometer (PerkinElmer® EnVision™). Each concentration of compounds was tested in triplicate.
(§2) Viability was calculated as a percentage of ATP value compared to vehicle treated controls.
(§3) For PDX primary cell cultures, the tumour tissue was washed with PBS containing antibiotic-antimycotic and non-tumour tissue and necrotic tumour tissues were separated. The tumour tissue was transferred to a new dish and cut into 1-2 mm^3 fragments, resuspended in RPMI-1640 medium and centrifuged at 1,200 rpm for 6 min at room temperature. The pelleted material was resuspended with 15 mL of Tumour Cell Digestion Solution and incubated at 37° C. for 1 hour with agitation. Following further addition of media, centrifugation and passage through a […] cell strainer, the homogenous cell mixture was layered onto 15 mL of Ficoll-Paque PLUS in a 50 mL conical tube and centrifuged for 15 min at 1,600 rpm. The interface cells were collected, washed with media, separated by centrifugation at 1,200 rpm. The cell pellet was resuspended in serum free media supplemented with growth factors. 10,000 cells/wells were plated in a 96 well plate and incubated at 37° C., 5% CO2, 95% air and 100% relative humidity overnight. The cytotoxicity assay was conducted as above. IC50 values represent absolute IC50.

BR-05-0399 = test: as above; settings: 120 h; breast PDX BR-05-0399; absolute IC50; 5 days
Description: as §1, §2, §3

CH-17-0091 = test: as above; settings: 120 h; bile duct PDX CH-17-0091; absolute IC50; 5 days
Description: as §1, §2, §3

CH-17-0098 = test: as above; settings: 120 h; bile duct PDX CH-17-0098; absolute IC50; 5 days
Description: as §1, §2, §3

CO-04-0700 = test: as above; settings: 120 h; colon PDX CO-04-0700; absolute IC50; 5 days
Description: as §1, §2, §3

CO-04-0701 = test: as above; settings: 120 h; colon PDX CO-04-0701; absolute IC50; 5 days
Description: as §1, §2, §3

CO-04-0722 = test: as above; settings: 120 h; colon PDX CO-04-0722; absolute IC50; 5 days
Description: as §1, §2, §3

LU-01-0027 = test: as above; settings: 120 h; lung PDX LU-01-0027; absolute IC50; 5 days
Description: as §1, §2, §3

LU-01-0604 = test: as above; settings: 120 h; lung PDX LU-01-0604; absolute IC50; 5 days
Description: as §1, §2, §3

LY-24-0340 = test: as above; settings: 120 h; lymphoma PDX LY-24-0340; absolute IC50; 5 days
Description: as §1, §2, §3

PC-07-0045 = test: as above; settings: 120 h; pancreatic PDX PC-07-0045; absolute IC50; 5 days
Description: as §1, §2, §3

PC-07-0059 = test: as above; settings: 120 h; pancreatic PDX PC-07-0059; absolute IC50; 5 days
Description: as §1, §2, §3

ST-02-0012 = test: as above; settings: 120 h; stomach PDX ST-02-0012; absolute IC50; 5 days
Description: as §1, §2, §3

ST-02-0173 = test: as above; settings: 120 h; stomach PDX ST-02-0173; absolute IC50; 5 days
Description: as §1, §2, §3

SMILES: CCNC(=O)Oc1ccc2c(=O)cc(-c3ccc(CCCC[P+](c4ccccc4)(c4ccccc4)c4ccccc4)cc3)oc2c1OC(=O)NCC.[Br-] [SND124, 4-[4-[7,8-Bis(ethylcarbamoyloxy)-4-oxo-chromen-2-yl]phenyl]-butyltriphenylphosphonium bromide]
IC50 (BR-05-0014E): 7.2 µM
IC50 (BR-05-0399): 5.2 µM
IC50 (CH-17-0091): 5.4 µM
IC50 (CH-17-0098): 6.1 µM
IC50 (CO-04-0700): 2.3 µM
IC50 (CO-04-0701): 21.8 µM
IC50 (CO-04-0722): 3.2 µM
IC50 (LU-01-0027): 9.3 µM
IC50 (LU-01-0604): 7.8 µM
IC50 (LY-24-0340): 3.7 µM
IC50 (PC-07-0045): 7 µM
IC50 (PC-07-0059): 4.2 µM
IC50 (ST-02-0012): 8.2 µM
IC50 (ST-02-0173): 11.3 µM
IC50 (lung carcinoma cell): < 20 µM

SMILES: CCNC(=O)Oc1ccc2c(=O)cc(-c3ccc(CCCC[P+](c4ccccc4)(c4ccccc4)c4ccccc4)cc3)oc2c1O.[Br-] [SND126A, 4-[4-[7-(Ethylcarbamoyloxy)-8-hydroxy-4-oxo-chromen-2-yl]phenyl]butyltriphenylphosphonium bromide]
IC50 (BR-05-0014E): 7.7 µM
IC50 (BR-05-0399): 6.5 µM
IC50 (CH-17-0091): 7.2 µM
IC50 (CH-17-0098): 8.5 µM
IC50 (CO-04-0700): 2.3 µM
IC50 (CO-04-0701): > 30 µM
IC50 (CO-04-0722): 3.4 µM
IC50 (LU-01-0027): 12 µM
IC50 (LU-01-0604): 8.2 µM
IC50 (LY-24-0340): 4.1 µM
IC50 (PC-07-0045): 7.7 µM
IC50 (PC-07-0059): 4.9 µM
IC50 (ST-02-0012): 8.9 µM
IC50 (ST-02-0173): 14.7 µM

SMILES: CC(C)NC(=O)Oc1ccc2c(=O)cc(-c3ccc(CCCC[P+](c4ccccc4)(c4ccccc4)c4ccccc4)cc3)oc2c1O [SND127, 4-[4-[7-(Isopropylcarbamoyloxy)-8-hydroxy-4-oxo-chromen-2-yl]phenyl]butyltriphenylphosphonium bromide]
IC50 (lung carcinoma cell): < 20 µM

Second part, led by results:

IC50 (lung carcinoma cell): < 20 µM
SMILES: O=c1cc(-c2ccc(CCCC[P+](c3ccccc3)(c3ccccc3)c3ccccc3)cc2)oc2c(O)c(O)ccc12 [SND118, 4-[4-(7,8-dihydroxy-4-oxo-chromen-2-yl)phenyl]butyltriphenyl-phosphonium bromide]

IC50 (lung carcinoma cell): < 20 µM
SMILES: O=c1cc(-c2ccc(CCCC[P+](c3ccccc3)(c3ccccc3)c3ccccc3)cc2)oc2c3c(ccc12)OCO3.[Br-] [SND123, 4-[4-(6-oxo-[1,3]dioxolo[4,5-h]chromen-8-yl)phenyl]butyl-triphenylphosphonium bromide]
IC50 (BR-05-0014E): 0.98 µM
IC50 (BR-05-0399): 2.1 µM
IC50 (CH-17-0091): 3 µM
IC50 (CH-17-0098): 0.72 µM
IC50 (CO-04-0700): 2.6 µM
IC50 (CO-04-0701): 3.4 µM
IC50 (CO-04-0722): 2.1 µM
IC50 (LU-01-0027): 5.9 µM
IC50 (LU-01-0604): 0.35 µM
IC50 (LY-24-0340): 0.4 µM
IC50 (PC-07-0045): 4 µM
IC50 (PC-07-0059): 2.7 µM
IC50 (ST-02-0012): 0.3 µM
IC50 (ST-02-0173): 2.2 µM

IC50 (lung carcinoma cell): < 20 µM
SMILES: COc1c(O)ccc2c(=O)cc(-c3ccc(CCCC[P+](c4ccccc4)(c4ccccc4)c4ccccc4)cc3)oc12.[Br-] [SND140, (4-(4-(7-hydroxy-8-methoxy-4-oxo-4H-chromen-2-yl)phenyl)butyl)triphenylphosphonium bromide]
IC50 (BR-05-0014E): 10.4 µM
IC50 (BR-05-0399): 6 µM
IC50 (CH-17-0091): > 50 µM
IC50 (CH-17-0098): 4.98 µM
IC50 (CO-04-0700): 12.8 µM
IC50 (CO-04-0701): 13.8 µM
IC50 (CO-04-0722): 11.6 µM
IC50 (LU-01-0027): 16 µM
IC50 (LU-01-0604): 7.7 µM
IC50 (LY-24-0340): 4.1 µM
IC50 (PC-07-0045): 13.2 µM
IC50 (PC-07-0059): 20.4 µM
IC50 (ST-02-0012): 4.9 µM
IC50 (ST-02-0173): 9.8 µM
